Source: patent US8623593B1, “GPR 17 agonists and screening assay” (Rheinische Friedrich-Wilhelms-Universität Bonn, priority 2011, dated 2014)
Where two headings read alike, the source gives them in different places.

What was measured:
human GPR17 (hGPR17) [1] = biological target: T1, human GPR17 (hGPR17) (Homo sapiens, UniProt Q13304); assay: calcium mobilization assay in 1321N1-GPR17 cells; type: cell-based; set-up: expressed in transfected cells; host or cells: 1321N1 human astrocytoma cells, retroviral transfection with pLXSN-GPR17, G418 selection
Protocol: The sequence for the human GPR17 (short isoform) was subcloned into the vector pLXSN (Clontech Laboratories, CA 94043, USA), which can be used for retroviral transfection of the human astrocytoma cell line 1321N1. […] For the retroviral transfection of 1321N1 astrocytoma cells the packaging cell line GP+envAM12 was cultivated in HXM medium (50 ml of foetal calf serum (FCS), 5 ml of penicillin G/streptomycin solution (final concentration 100 U/ml penicillin, 100 μg/ml streptomycin), 1% ultra glutamine, 0.75 ml of hypoxanthine (10 mg/ml), 12.5 ml of xanthine (10 mg/ml), 1.25 ml of mycophenolic acid (10 mg/ml) and 2 ml of hygromycin B (50 mg/ml) were added to 500 ml DMEM). One day before transfection 1.5×10^6 cells were seeded and incubated overnight at 37° C., 5% CO2 and 95% humidity in a 25 cm^2 cell culture flask containing medium without antibiotics. For at least two hours before transfection the medium was exchanged for 6.25 ml DMEM medium without any additive. Two solutions were prepared for the transfection. The first solution consisted of 25 μl of Lipofectamine™ 2000 (final concentration 2%) and 600 μl of DMEM medium without any additives while the second solution was composed of 6.25 μg of pLXSN-GPR17 and 3.75 μg of pLXSN-VSV-G vector DNA. The second solution was filled up with DMEM medium without any additives. Solution one was incubated for 5 min at room temperature before both solutions were combined and incubated for 20 min, also at room temperature. Afterwards the sample was added to the packaging cell line and incubated for 12-15 h. The medium was then replaced with 3 ml of fresh medium containing 30 μl of a 500 mM sodium butyrate solution. The virus production was stimulated by sodium butyrate and took place by incubation for 48 h at 32° C. and 95% humidity. One day before infection 500,000 of 1321N1 astrocytoma cells were seeded in a 25 cm^2 cell culture flask. After 48 h of virus production, the retroviruses were harvested and sterilised by filtration through a filter with a pore size of […]. The host cell medium was replaced with the sterilized virus supernatant containing 6 μl of polybrene solution (4 mg/ml) and the infection of the host cells took place for further 48 h of incubation at 37° C., 95% humidity and 5% CO2. After incubation, the transfected cells were transferred to a 175 cm^2 cell culture flask and selected by adding medium containing G418. The efficiency of infection and stable transfection using this method was up to 95%.
PLC activation and IP3 accumulation result in a release of calcium from intracellular calcium stores, for example the endoplasmic reticulum. In order to detect the released calcium, cells are loaded with a cell membrane permeable dye, which is converted within the cell into its active form by the cleavage of ester bonds. The active form of the dye binds the released calcium. The fluorescence properties of the dye change after calcium binds to the dye. These changes can be detected automatically and represent the ligand-dependent receptor activation. Cells from two confluently grown (80 to 90%) 175 cm^2 cell culture flasks were needed for a calcium assay using the NOVOstar microplate reader (approximately 150,000 cells per well). Cells were harvested after removing the medium, washed once with PBS buffer and detached using a trypsin/EDTA solution. After incubation for 45 min at 37° C. and 5% CO2, the cells were pelleted by centrifugation (5 min, 200 g). Cells were resuspended in 994 μl of Krebs HEPES buffer (KHB; 118.6 mM NaCl, 4.7 mM KCl, 1.2 mM KH2PO4, 4.2 mM NaHCO3, 11.7 mM D-glucose, 10 mM HEPES (free acid), 1.3 mM MgSO4 and 1.2 mM CaCl2, pH 7.4) and loaded in the absence of light with fluorescent, namely Oregon Green 488 BAPTA-1/AM dye, by incubating them for one hour at 28° C. and 700 rpm in an Eppendorf Thermomixer in the presence of Pluronic F-127. Pluronic F-127 was supplemented so that the cells could better absorb the dye. […]

human GPR17 (hGPR17) [2] = biological target: T1, human GPR17 (hGPR17); assay: calcium mobilization assay in CHO-GPR17 cells; type: cell-based; set-up: expressed in transfected cells; conditions: for % of response of compound (± SEM) CHO-GPR17 cells: normalised to response of 0.3 μM RA-II-150; for pEC50 (± SEM) CHO-GPR17: calcium mobilization, CHO-GPR17 cells
Text: In order to investigate potential differences in receptor signalling as a function of the cellular background, GPR17 was additionally expressed and analysed in a further cell system. Therefore, a recombinant Chinese hamster ovary (CHO) cell line stably expressing GPR17 was generated using the Flp-In™ T-Rex™ expression system. Here, expression of GPR17 was induced after adding doxycycline.
(§1) In order to detect the released calcium, cells are loaded with a cell membrane permeable dye, which is converted within the cell into its active form by the cleavage of ester bonds. The active form of the dye binds the released calcium. The fluorescence properties of the dye change after calcium binds to the dye. These changes can be detected automatically and represent the ligand-dependent receptor activation. Cells from two confluently grown (80 to 90%) 175 cm^2 cell culture flasks were needed for a calcium assay using the NOVOstar microplate reader (approximately 150,000 cells per well). Cells were harvested after removing the medium, washed once with PBS buffer and detached using a trypsin/EDTA solution. After incubation for 45 min at 37° C. and 5% CO2, the cells were pelleted by centrifugation (5 min, 200 g). […] The cells were washed twice with 1 ml of KHB buffer (three centrifugation steps, each for 15 sec at 2700 rpm) before being seeded in a 96-well microplate in a total volume of 180 μl. A 10-fold concentrated agonist solution (35 μl) was added to another 96-well microplate with a V-profile. Both plates were placed into the NOVOstar microplate reader and incubated there for 20 min. After incubation, the required gain was determined by the microplate so that the fluorescence background of the cells was between 38,000 and 42,000 fluorescence units. This background is an optimal range for starting the measurement, because it is in the middle of the reader's detection range. Normally, the background in each well of a microplate should be the same. The background was determined by performing a so-called validation. A validation is performed to detect irregularities in cell densities between different wells, fluorescence or absorption properties as well as unspecific antagonist effects. […] Afterwards, 20 μl of agonist were injected from the source plate to the measurement plate by the injector unit of the NOVOstar, and the increase in fluorescence was determined as a function of the calcium efflux resulting from receptor stimulation.

CHO-K1 cells = assay: calcium mobilization assay, unspecific effects on native CHO-K1 cells; type: cell-based, Chinese hamster; conditions: normalised to response of 100 μM ATP
Text: as §1

Native 1321N1 cells = assay: calcium mobilization assay, unspecific effects on native 1321N1 cells; type: cell-based, human; conditions: normalised to response of 100 μM carbachol
Text: as §1

solubility in solvents = type: physicochemical
[3] = calcium mobilization, 1321N1-GPR17 cells
[4] = 30 μM compound, normalised to response of 30 μM RA-II-150

T1 sequence (Q13304 29-367): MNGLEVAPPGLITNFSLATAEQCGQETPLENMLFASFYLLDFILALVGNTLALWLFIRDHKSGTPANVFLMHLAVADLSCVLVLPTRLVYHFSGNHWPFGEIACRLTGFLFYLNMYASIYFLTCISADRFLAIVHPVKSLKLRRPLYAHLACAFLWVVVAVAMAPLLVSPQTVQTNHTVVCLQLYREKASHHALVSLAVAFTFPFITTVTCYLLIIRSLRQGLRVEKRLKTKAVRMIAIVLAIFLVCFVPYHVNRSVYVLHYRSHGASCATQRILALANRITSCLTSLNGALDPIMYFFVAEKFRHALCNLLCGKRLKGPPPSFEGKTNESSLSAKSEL

Compound	pEC50 (± SEM) 1321N1-GPR17 (human GPR17 (hGPR17) [1]; [3])	% of response of 30 μM compound (± SEM) 1321N1-GPR17 (human GPR17 (hGPR17) [1]; [4])	pEC50 (± SEM) CHO-GPR17 (human GPR17 (hGPR17) [2])	% response of 30 μM compound (± SEM) Native 1321N1 cells (Native 1321N1 cells)	also measured
O=C(O)CCc1c(C(=O)O)[nH]c2cc(I)ccc12 [3-(2-Carboxyethyl)-6-iodo-1H-indole-2-carboxylic acid]	6.15				
O=C(O)CCc1c(C(=O)O)n(CCC(=O)O)c2cc(Cl)cc(Cl)c12		80 (6) %		1 (1)/1 (1) (1 μM compound) %	% of response of compound (± SEM) CHO-GPR17 cells (human GPR17 (hGPR17) [2]; 1 μM compound): 85 (5) %; % response of compound (± SEM) CHO-K1 cells (CHO-K1 cells; 1 μM compound): 1 (1)/1 (1) (1 μM compound) %
O=C(O)CCc1c(C(=O)O)[nH]c2cc(Cl)ccc12 [3-(2-Carboxyethyl)-6-chloro-1H-indole-2-carboxylic acid]	5.43 (0.14)	84 (6) %	7.69 (0.10)	4 (3) %	% of response of compound (± SEM) CHO-GPR17 cells (human GPR17 (hGPR17) [2]; 1 μM compound): 94 (7) %; % response of compound (± SEM) CHO-K1 cells (CHO-K1 cells; 0.3 μM compound): 1 (2) %
O=C(O)CCc1c(C(=O)O)[nH]c2cc(-c3ccccc3)cc(-c3ccccc3)c12 [3-(2-Carboxyethyl)-4,6-diphenyl-1H-indole-2-carboxylic acid]	5.52				
O=C(O)CCc1c(C(=O)O)[nH]c2cc(Cl)cc(Cl)c12 [RA-II-150, 3-(2-carboxyethyl)-4,6-dichloro-1H-indole-2-carboxylic acid]			6.09 (0.06)/ 8.20 (0.08)	0 (3) %	% of response of compound (± SEM) CHO-GPR17 cells (human GPR17 (hGPR17) [2]; 0.3 μM compound): 100 (0)/100 (0) (0.3 μM compound) %; % of response of 30 μM compound (± SEM) 1321N1-GPR17 (human GPR17 (hGPR17) [1]): 100 (0)/100 (0) (0.3 μM compound) %; pEC50 (± SEM) 1321N1-GPR17 (human GPR17 (hGPR17) [1]): 6.09 (0.06)/ 8.20 (0.08); % response of compound (± SEM) CHO-K1 cells (CHO-K1 cells; 0.1 μM compound): 0 (1) %
O=C(O)CCc1c(C(=O)O)[nH]c2cc(-c3ccccc3)ccc12 [3-(2-Carboxyethyl)-6-phenyl-1H-indole-2-carboxylic acid]	6.14				

More lines, main results first:

pEC50 (± SEM) 1321N1-GPR17 (human GPR17 (hGPR17) [1]; [3])	% of response of 30 μM compound (± SEM) 1321N1-GPR17 (human GPR17 (hGPR17) [1]; [4])	pEC50 (± SEM) CHO-GPR17 (human GPR17 (hGPR17) [2])	Compound	% response of 30 μM compound (± SEM) Native 1321N1 cells (Native 1321N1 cells)	also measured
4.86 (0.10)	76 (6) %	6.47 (0.05)	Cc1cc(C)c2c(CCC(=O)O)c(C(=O)O)[nH]c2c1 [3-(2-Carboxyethyl)-4,6-dimethyl-1H-indole-2-carboxylic acid]	1 (1)/1 (1) (1 μM compound) %	% of response of compound (± SEM) CHO-GPR17 cells (human GPR17 (hGPR17) [2]; 1 μM compound): 68 (2) %; % response of compound (± SEM) CHO-K1 cells (CHO-K1 cells; 1 μM compound): 1 (1)/1 (1) (1 μM compound) %
5.13 (0.13)	77 (2) %	6.79 (0.10)	O=C(O)CCc1c(C(=O)O)[nH]c2cc(F)cc(F)c12 [3-(2-Carboxyethyl)-4,6-difluoro-1H-indole-2-carboxylic acid]	2 (1) %	% of response of compound (± SEM) CHO-GPR17 cells (human GPR17 (hGPR17) [2]; 3 μM compound): 97 (5) %; % response of compound (± SEM) CHO-K1 cells (CHO-K1 cells; 3 μM compound): 1 (2) %
6.71 (0.01)		7.87 (0.16)	O=C(O)CCc1c(C(=O)O)[nH]c2cc(Br)cc(Br)c12 [3-(2-Carboxyethyl)-4,6-dibromo-1H-indole-2-carboxylic acid]	0 (1) %	% of response of compound (± SEM) CHO-GPR17 cells (human GPR17 (hGPR17) [2]; 0.3 μM compound): 89 (2) %; % of response of compound (± SEM) 1321N1-GPR17 (human GPR17 (hGPR17) [1]; 10 μM compound, normalised to response of 30 μM RA-II-150): 106 (1) %; % response of compound (± SEM) CHO-K1 cells (CHO-K1 cells; 0.3 μM compound): 0 (0) %; solubility in methanol, ethanol and ethyl acetate (solubility in solvents; methanol, ethanol, ethyl acetate): well soluble; solubility in petrol ether, water, hexane (solubility in solvents; petrol ether, water, hexane): slightly soluble
5.32			O=C(O)CCc1c(C(=O)O)[nH]c2cc(I)cc(I)c12 [3-(2-Carboxyethyl)-4,6-diiodo-1H-indole-2-carboxylic acid]		
5.50			O=C(O)CCc1c(C(=O)O)[nH]c2cc(Br)ccc12 [3-(2-Carboxyethyl)-6-bromo-1H-indole-2-carboxylic acid]		
